Laboratory results published in ChEMBL document CHEMBL4229400, “Covalent inhibitors of nicotinamide N-methyltransferase (NNMT) provide evidence for target engagement challenges in situ” (Bioorg Med Chem Lett, 2018).
Active and inactive are the calls of the source. The calls are words filed in the database; no cut-off is given here.

Experiments:
[1] = target: T1, Cytoskeleton-associated protein 4 (Homo sapiens) (UniProt Q07065); test: Binding affinity to CKAP4 cysteine residue in human 786-O cell soluble proteomic lysate at 5 uM incubated for 1 hr followed by cell lysis by IA-alkyne probe based isoTOP-ABPP analysis
T1 sequence (whole entry): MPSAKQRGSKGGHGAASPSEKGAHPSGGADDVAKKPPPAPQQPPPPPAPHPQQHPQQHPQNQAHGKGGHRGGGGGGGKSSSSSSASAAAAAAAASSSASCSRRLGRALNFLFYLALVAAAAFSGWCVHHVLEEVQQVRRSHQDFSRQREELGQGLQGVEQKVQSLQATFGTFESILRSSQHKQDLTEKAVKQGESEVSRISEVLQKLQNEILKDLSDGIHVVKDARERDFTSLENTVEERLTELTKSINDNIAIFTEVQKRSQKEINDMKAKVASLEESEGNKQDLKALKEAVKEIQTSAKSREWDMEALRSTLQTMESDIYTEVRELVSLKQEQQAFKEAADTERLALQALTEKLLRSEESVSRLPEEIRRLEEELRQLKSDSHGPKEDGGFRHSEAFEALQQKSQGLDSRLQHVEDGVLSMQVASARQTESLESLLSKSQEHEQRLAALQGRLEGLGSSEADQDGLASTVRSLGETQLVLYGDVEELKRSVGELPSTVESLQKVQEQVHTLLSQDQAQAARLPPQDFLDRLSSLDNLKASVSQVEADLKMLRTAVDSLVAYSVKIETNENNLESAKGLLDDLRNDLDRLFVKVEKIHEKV

[2] = target: Receptor expression-enhancing protein 5 (Homo sapiens) (UniProt Q00765); test: Binding affinity to REEP5 cysteine residue in human 786-O cell soluble proteomic lysate at 5 uM incubated for 1 hr followed by cell lysis by IA-alkyne probe based isoTOP-ABPP analysis
[3] = target: T2, Glutathione S-transferase omega-1 (Homo sapiens) (UniProt P78417); test: Binding affinity to GSTO1 C32 residue in human 786-O cell lysate at 5 uM incubated for 1 hr followed by cell lysis by IA-alkyne probe based isoTOP-ABPP analysis
T2 sequence (whole entry): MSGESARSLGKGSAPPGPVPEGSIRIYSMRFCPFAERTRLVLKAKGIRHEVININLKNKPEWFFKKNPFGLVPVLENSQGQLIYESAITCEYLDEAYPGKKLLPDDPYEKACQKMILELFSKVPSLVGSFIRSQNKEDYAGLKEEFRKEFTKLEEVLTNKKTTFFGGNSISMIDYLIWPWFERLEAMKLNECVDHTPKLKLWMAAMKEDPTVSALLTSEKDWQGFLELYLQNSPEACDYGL

[4] = target: T3, Sterol carrier protein 2 (Homo sapiens) (UniProt P22307); test: Binding affinity to SCP2 cysteine residue in human 786-O cell soluble proteomic lysate at 5 uM incubated for 1 hr followed by cell lysis by IA-alkyne probe based isoTOP-ABPP analysis
T3 sequence (whole entry): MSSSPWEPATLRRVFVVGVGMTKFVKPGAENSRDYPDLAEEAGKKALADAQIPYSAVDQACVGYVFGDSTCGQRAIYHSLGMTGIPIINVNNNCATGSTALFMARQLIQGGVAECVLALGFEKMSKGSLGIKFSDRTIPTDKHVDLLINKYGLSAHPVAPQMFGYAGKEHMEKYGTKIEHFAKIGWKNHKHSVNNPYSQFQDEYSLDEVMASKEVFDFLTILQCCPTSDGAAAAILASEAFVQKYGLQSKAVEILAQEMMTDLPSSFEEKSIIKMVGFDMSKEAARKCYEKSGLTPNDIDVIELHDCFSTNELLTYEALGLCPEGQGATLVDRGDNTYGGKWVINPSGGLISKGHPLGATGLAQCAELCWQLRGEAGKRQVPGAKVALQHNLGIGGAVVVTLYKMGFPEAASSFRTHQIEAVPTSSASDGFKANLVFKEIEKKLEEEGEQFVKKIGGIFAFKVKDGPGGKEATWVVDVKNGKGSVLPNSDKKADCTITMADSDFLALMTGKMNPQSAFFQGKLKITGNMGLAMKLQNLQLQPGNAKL

Zyxin (Homo sapiens) = target: T4, Zyxin (Homo sapiens) (UniProt Q15942); test: Binding affinity to ZYX cysteine residue in human 786-O cell soluble proteomic lysate at 5 uM incubated for 1 hr followed by cell lysis by IA-alkyne probe based isoTOP-ABPP analysis
T4 sequence (whole entry): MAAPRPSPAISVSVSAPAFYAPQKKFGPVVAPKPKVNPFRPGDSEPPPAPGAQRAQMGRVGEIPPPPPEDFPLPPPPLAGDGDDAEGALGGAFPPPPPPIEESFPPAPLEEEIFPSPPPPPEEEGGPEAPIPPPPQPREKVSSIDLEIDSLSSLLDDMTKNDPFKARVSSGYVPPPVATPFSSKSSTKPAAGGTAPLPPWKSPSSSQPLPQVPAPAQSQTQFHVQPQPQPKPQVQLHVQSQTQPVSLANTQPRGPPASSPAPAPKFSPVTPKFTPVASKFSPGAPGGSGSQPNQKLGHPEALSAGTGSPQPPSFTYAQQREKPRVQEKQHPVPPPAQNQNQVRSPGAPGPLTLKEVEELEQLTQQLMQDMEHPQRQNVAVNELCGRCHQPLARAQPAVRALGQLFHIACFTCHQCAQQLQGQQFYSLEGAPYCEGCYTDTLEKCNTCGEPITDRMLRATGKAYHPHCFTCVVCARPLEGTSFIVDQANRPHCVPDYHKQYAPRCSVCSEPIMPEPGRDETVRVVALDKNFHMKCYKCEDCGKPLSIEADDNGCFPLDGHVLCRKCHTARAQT

Receptor expression-enhancing protein 5 (Homo sapiens), sequence (Q00765 whole entry): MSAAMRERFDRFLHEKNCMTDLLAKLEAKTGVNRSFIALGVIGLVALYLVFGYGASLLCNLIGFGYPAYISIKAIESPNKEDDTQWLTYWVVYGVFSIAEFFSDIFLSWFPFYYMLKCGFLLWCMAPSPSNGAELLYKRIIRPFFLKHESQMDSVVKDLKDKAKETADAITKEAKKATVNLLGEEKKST

Activity [1]	Activity [2]	Activity [3]	Activity [4]	Activity (Zyxin (Homo sapiens))	Compound
Active	Active	Active			CC(C)CCN(C(=O)CCl)c1cc(C(=O)NCc2cccc([N+](=O)[O-])c2)cc(C(F)(F)F)c1
			Active	Active	O=C(Nc1cccnc1Cl)c1cc(N(CCCc2ccccc2)C(=O)CCl)cc(C(F)(F)F)c1
